One assay addresses T1, cA3+ hB3 (Canis lupus familiaris; Homo sapiens, UniProt A0A068LEV2+Q9NQW8).
T1 construct: gene CNGA3; inter-species heterotetramer: canine CNGA3 with C-terminal YFP co-expressed with untagged human CNGB3 (pcDNA3.1) in tSA201 cells; stoichiometry debated (2:2 or 3:1)
T1 sequence (A0A068LEV2 1-708): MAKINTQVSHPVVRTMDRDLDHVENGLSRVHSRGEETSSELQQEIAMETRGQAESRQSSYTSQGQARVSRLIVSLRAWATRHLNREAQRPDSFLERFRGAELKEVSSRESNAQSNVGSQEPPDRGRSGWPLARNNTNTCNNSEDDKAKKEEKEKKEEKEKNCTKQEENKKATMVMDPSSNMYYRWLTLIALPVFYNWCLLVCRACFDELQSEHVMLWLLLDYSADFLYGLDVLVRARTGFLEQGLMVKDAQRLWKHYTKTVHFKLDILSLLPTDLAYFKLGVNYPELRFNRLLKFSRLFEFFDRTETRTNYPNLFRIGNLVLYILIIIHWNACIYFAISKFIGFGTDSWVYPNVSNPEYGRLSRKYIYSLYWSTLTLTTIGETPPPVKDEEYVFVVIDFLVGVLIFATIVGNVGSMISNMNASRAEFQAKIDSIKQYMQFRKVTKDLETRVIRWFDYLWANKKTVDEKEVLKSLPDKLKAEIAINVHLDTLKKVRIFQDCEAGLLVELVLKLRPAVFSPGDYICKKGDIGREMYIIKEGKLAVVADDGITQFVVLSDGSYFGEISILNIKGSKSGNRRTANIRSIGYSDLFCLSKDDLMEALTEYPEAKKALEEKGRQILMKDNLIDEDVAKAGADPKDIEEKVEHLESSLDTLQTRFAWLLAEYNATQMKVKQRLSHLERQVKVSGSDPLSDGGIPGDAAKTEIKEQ
T1 sequence (Q9NQW8 1-809): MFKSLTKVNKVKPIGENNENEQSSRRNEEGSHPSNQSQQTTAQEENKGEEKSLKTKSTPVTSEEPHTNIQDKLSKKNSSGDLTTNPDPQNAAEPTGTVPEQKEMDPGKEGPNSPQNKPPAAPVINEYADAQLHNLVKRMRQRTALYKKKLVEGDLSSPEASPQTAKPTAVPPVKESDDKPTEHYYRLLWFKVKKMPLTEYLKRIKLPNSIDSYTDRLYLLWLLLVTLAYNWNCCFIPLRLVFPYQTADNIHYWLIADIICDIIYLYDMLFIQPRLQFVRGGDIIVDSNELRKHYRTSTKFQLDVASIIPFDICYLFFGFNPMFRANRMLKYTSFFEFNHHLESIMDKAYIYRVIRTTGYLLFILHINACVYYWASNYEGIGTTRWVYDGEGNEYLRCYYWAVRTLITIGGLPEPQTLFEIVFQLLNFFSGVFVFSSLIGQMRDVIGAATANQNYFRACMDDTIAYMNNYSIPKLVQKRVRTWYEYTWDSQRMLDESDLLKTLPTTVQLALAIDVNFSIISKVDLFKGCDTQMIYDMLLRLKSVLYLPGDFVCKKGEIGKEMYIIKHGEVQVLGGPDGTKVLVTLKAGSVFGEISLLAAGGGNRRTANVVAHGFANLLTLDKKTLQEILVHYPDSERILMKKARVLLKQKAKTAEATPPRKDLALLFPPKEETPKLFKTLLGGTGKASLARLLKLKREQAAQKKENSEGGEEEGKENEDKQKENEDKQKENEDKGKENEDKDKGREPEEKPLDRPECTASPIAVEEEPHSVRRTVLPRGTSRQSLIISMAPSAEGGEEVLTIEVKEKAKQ
The assay is described as follows: inside-out patch electrophysiology, current block. It counts as biochemical. The settings on record: 25 µM; channel block; 25 µM L-cis-diltiazem with 100 µM cGMP, -60 mV, 120 mM NaCl, EDTA/EGTA, pH 7.4, room temperature. The source says:
inside-out patch electrophysiology, current block on cA3+ hB3

For another assay, the target named is T2, cA3 (Canis lupus, UniProt A0A068LEV2).
T2 construct: gene CNGA3; full-length coding region cloned from canine retina, C-terminal YFP (pEYFP-N1, stop removed), tSA201 cells, homotetramer
T2 sequence (A0A068LEV2 1-708): T1 sequence (A0A068LEV2 1-708)
Description: inside-out patch electrophysiology, current block. It counts as biochemical. The settings on record: 25 µM; channel block; 25 µM L-cis-diltiazem with 100 µM cGMP, -60 mV, 120 mM NaCl, EDTA/EGTA, pH 7.4, room temperature. The source says:
inside-out patch electrophysiology, current block on cA3

Molecules are shown by their SMILES.

On to `COc1ccc([C@H]2Sc3ccccc3N(CCN(C)C)C(=O)[C@H]2OC(C)=O)cc1` [L-cis-diltiazem], for which the Idil/I at cA3+ hB3 was determined as 0.40±0.02; on cA3, 0.79±0.05.

These data come from paper PMC3931646, “A Cyclic Nucleotide-Gated Channel Mutation Associated with Canine Daylight Blindness Provides Insight into a Role for the S2 Segment Tri-Asp motif in Channel Biogenesis” (PLoS ONE, 2014).
